Assay results published in patent US8247211B2, “Glycopeptide antibiotics” (American Cyanamid Company, priority 2001, dated 2012).
≈ marks a conversion by molar mass, not a printed value.

Assays:
Test in all cases: In vitro antibacterial evaluation: minimum inhibitory concentration (MIC), broth dilution method
Format in all cases: cell-based
[1] = test system: Enterococcus sp.
Method: (§1) The minimum inhibitory concentration (MIC), the lowest concentration of the antibiotic which inhibits growth of the test organism, is determined by the broth dilution method using Muller-Hinton II […] (Baltimore Biological Laboratories) following the recommendations of the National Committee for Clinical Laboratory Standards [Methods for dilution antimicrobial susceptibility tests for bacteria that grow aerobically, approved standard M7-A2, National Committee for Clinical Laboratory Standards, Villanova, Pa].
(§2) An inoculum level of 5×10^5 CFU/mL, and a range of antibiotic concentrations (64-0.06 μg/mL) is used. […] The test organisms include a spectrum of Gram-positive bacteria comprised of Staphylococcus sp., Streptococcus sp. and Enterococcus sp. These organisms include recent clinical isolates that are resistant to methicillin, penicillin and/or vancomycin.

[2] = test system: Escherichia coli; settings: Escherichia coli (GC 4560); 18 hours at 35° C.
Method: as §1, §2

[3] = test system: Staphylococcus sp.; settings: for MIC Staphylococcus aureus-SMITH (GC 4543): strain GC 4543; for MIC Staphylococcus haemolyticus (GC 4546): strain GC 4546; for MIC Coagulase Negative Staphylococcus (GC 4547): strain GC 4547; for MIC Coagulase Negative Staphylococcus (GC 4548): strain GC 4548; for MIC Coagulase Negative Staphylococcus (GC 4549): strain GC 4549; for MIC Coagulase Negative Staphylococcus (GC 4551): strain GC 4551; for MIC Coagulase Negative Staphylococcus (ID-3941): strain ID-3941
Method: as §1, §2

[4] = test system: Streptococcus sp.
Method: as §1, §2

[5] = broth dilution, 18 hours at 35° C.

## CC(c1ccccc1)C1NC(=O)CNC(=O)C(CO)NC(=O)C(C(O)C2CNC(=N)N2C2OC(CO)C(O)C3OC(C)(C)OC32)NC(=O)C(C(O)C2CNC(=N)N2)NC(=O)C(Cc2ccc(OC3OC(CO)C(OC4OC5COC(C)(C)OC5C5OC(C)(C)OC45)C4OC(C)(C)OC34)cc2)NC1=O (stereo not drawn) [Example 229b, Cyclo[glycyl-β-methylphenylalanyl-O-[2,3-O-isopropylidene-4-O-(2,3:4,6-di-O-isopropylidene-hexopyranosyl)hexopyranosyl]tyrosyl-3-(2-iminoimidazolidin-4-yl)seryl-3-[2-imino-(2,3-O-isopropylidenehexopyranosyl)imidazolidin-4-yl]serylseryl]]
[1]; Enterococcus avium (GC 4558), 18 hours at 35° C.
  MIC Enterococcus avium (GC 4558): 64 µg/mL (≈ 44 µM)
[1]; broth dilution, inoculum 5×10^5 CFU/mL, 18 hours at 35° C.
  MIC Enterococcus avium (GC 4558): 64 µg/mL (≈ 44 µM)
[2]
  MIC Escherichia coli (GC 4560): 32 µg/mL (≈ 22 µM)

## CC(c1ccccc1)C1NC(=O)CNC(=O)C(CO)NC(=O)C(C(O)C2CNC(=N)N2C2OC(CO)C(O)C(O)C2O)NC(=O)C(C(O)C2CNC(=N)N2)NC(=O)C(Cc2ccc(OC3OC(COC(=O)C(c4ccccc4)c4ccccc4)C(OC4OC(CO)C(O)C(O)C4O)C(O)C3O)cc2)NC1=O (stereo not drawn) [Example 96b, Cyclo[glycyl-β-methylphenylalanyl-O-[6-O-(diphenylacetyl)-4-O-hexopyranosylhexopyranosyl]tyrosyl-3-(2-iminoimidazolidin-4-yl)seryl-3-(3-hexopyranosyl-2-iminoimidazolidin-4-yl)serylseryl]]
[1]; strain ATCC 29212
  MIC Enterococcus faecalis (ATCC 29212): 8 µg/mL (≈ 5.37 µM)
[1]; strain GC 2242
  MIC Enterococcus faecalis (GC 2242): 4 µg/mL (≈ 2.69 µM)
[1]; strain GC 2243
  MIC Enterococcus faecium (GC 2243): 8 µg/mL (≈ 5.37 µM)
[1]; strain GC 4552
  MIC Enterococcus faecalis (GC 4552): 8 µg/mL (≈ 5.37 µM)
[1]; strain GC 4553
  MIC Enterococcus faecalis (GC 4553): 8 µg/mL (≈ 5.37 µM)
[1]; strain GC 4554
  MIC Enterococcus faecalis (GC 4554): 8 µg/mL (≈ 5.37 µM)
[1]; strain GC 4556
  MIC Enterococcus faecium (GC 4556): 8 µg/mL (≈ 5.37 µM)
[1]; strain GC 4557
  MIC Enterococcus faecium (GC 4557): 1 µg/mL (≈ 0.671 µM)
[1]; strain GC 4558
  MIC Enterococcus avium (GC 4558): 4 µg/mL (≈ 2.69 µM)
[3]; [5]
  MIC Staphylococcus aureus (ATCC 29213): 1 µg/mL (≈ 0.671 µM)
  MIC Staphylococcus aureus (GC 1131): 2 µg/mL (≈ 1.34 µM)
  MIC Staphylococcus aureus (GC 4541): 1 µg/mL (≈ 0.671 µM)
  MIC Staphylococcus aureus (GC 4542): 2 µg/mL (≈ 1.34 µM)
  MIC Staphylococcus aureus (GC 4544): 2 µg/mL (≈ 1.34 µM)
  MIC Staphylococcus aureus (GC 4545): 1 µg/mL (≈ 0.671 µM)
  MIC Staphylococcus aureus-SMITH (GC 4543): 2 µg/mL (≈ 1.34 µM)
  MIC Staphylococcus haemolyticus (GC 4546): 1 µg/mL (≈ 0.671 µM)
  MIC Coagulase Negative Staphylococcus (GC 4547): 1 µg/mL (≈ 0.671 µM)
  MIC Coagulase Negative Staphylococcus (GC 4548): 0.5 µg/mL (≈ 0.336 µM)
  MIC Coagulase Negative Staphylococcus (GC 4549): 0.5 µg/mL (≈ 0.336 µM)
  MIC Coagulase Negative Staphylococcus (GC 4551): 2 µg/mL (≈ 1.34 µM)
  MIC Coagulase Negative Staphylococcus (ID-3941): 0.5 µg/mL (≈ 0.336 µM)
[3]; 18 hours at 35° C.
  MIC Staphylococcus aureus-SMITH (GC 4543): 2 µg/mL (≈ 1.34 µM)
[3]
  MIC Staphylococcus haemolyticus (GC 4546): 1 µg/mL (≈ 0.671 µM)
  MIC Coagulase Negative Staphylococcus (GC 4547): 1 µg/mL (≈ 0.671 µM)
  MIC Coagulase Negative Staphylococcus (GC 4548): 0.5 µg/mL (≈ 0.336 µM)
  MIC Coagulase Negative Staphylococcus (GC 4549): 0.5 µg/mL (≈ 0.336 µM)
  MIC Coagulase Negative Staphylococcus (GC 4551): 2 µg/mL (≈ 1.34 µM)
  MIC Coagulase Negative Staphylococcus (ID-3941): 0.5 µg/mL (≈ 0.336 µM)
[4]; strain GC 4564
  MIC Streptococcus agalactiae (GC 4564): 0.25 µg/mL (≈ 0.168 µM)
[4]; strain GC 4565
  MIC Streptococcus pneumoniae (GC 4565): <0.12 µg/mL
[4]; strain ID-3187
  MIC Streptococcus pyogenes (ID-3187): 0.25 µg/mL (≈ 0.168 µM)
